Measurements as given in patent US20160024057A1, “INDAZOLE RETINOIC ACID RECEPTOR-RELATED ORPHAN RECEPTOR MODULATORS AND USES THEREOF” (INNOV17 LLC, priority 2014, published 2016).

Assays:
Format in all cases: cell-based
IL-17A = experiment: Human TH17 cytokine inhibition measured by ELISA: IL-17A; details: human CD4+ T cells under TH17-polarizing conditions, 3 days, supernatant ELISA
Description: (§1) Human TH17 Cytokine Inhibition as Measured by ELISA
(§2) Peripheral blood mononuclear cells (PBMCs) were sourced from freshly prepared leukocyte enriched plasma (buffy coat) from healthy donors (New York Blood Center). PBMCs were isolated by density gradient centrifugation using Ficoll-Paque™ PLUS (GE Healthcare). Human CD4+ T cells were seeded into 96-well plates (5×10^4 cells/well) and activated with plate-bound anti-human (h)-CD3 antibody and soluble h-aCD28 (both at 1 ug/ml; eBioscience) and differentiated into TH17 cells with 20 ng/mL h-IL-6, 5 ng/mL h-TGF-β1, 10 ng/mL h-IL-23 (eBioscience) and 10 ng/mL IL-1β (Miltenyi Biotec) in serum-free TexMACS Medium (Miltenyi Biotec) supplemented with 1% Penicillin/Streptomycin (Lonza) for 3 days. CD4+ T cells propagated under TH17-polarizing conditions were cultured in the presence or absence of various concentrations of compounds with a final concentration of 0.1% DMSO. Supernatants were collected and stored at −20° C. until assayed for IL-17A, IL-17F and IL-21 levels by “Ready-Set-Go” ELISA kits (eBioscience) as per manufacturer's instructions. Endpoint absorbance was read at 450 nm using a microplate reader (Perkin Elmer).

IL-21 = experiment: Human TH17 cytokine inhibition measured by ELISA: IL-21; details: 72 h; human CD4+ T cells under TH17-polarizing conditions, 3 days, supernatant ELISA
Description: as §1, §2

IL-17F = experiment: Human TH17 cytokine inhibition measured by ELISA: IL-17F; details: 72 h; human CD4+ T cells under TH17-polarizing conditions, 3 days, supernatant ELISA
Description: as §1, §2

IL-22 = experiment: Human TH17 cytokine inhibition measured by ELISA: IL-22; details: 72 h; human CD4+ T cells under TH17-polarizing conditions, 3 days, supernatant ELISA

IC50 (IL-17A; 72 h) | IC50 (IL-21) | IC50 (IL-17F) | IC50 (IL-17A) | IC50 (IL-22) | Structure (SMILES)
< 10 µM | < 10 µM | < 10 µM |  |  | C[C@@H]1C[C@H](Cn2ncc3cc(-c4cn[nH]c4)ccc32)CN1S(=O)(=O)c1ccccc1 (racemic) [Example 33, rac.-cis-1-((-5-methyl-1-(phenylsulfonyl)pyrrolidin-3-yl)methyl)-5-(1H-pyrazol-4-yl)-1H-indazole]
 |  |  | < 10 µM |  | C[C@@H]1C[C@@H](Cn2ncc3cc(-c4cn[nH]c4)ccc32)CN1S(=O)(=O)c1ccccc1 (racemic) [Example 34, rac.-trans-1-((-5-methyl-1-(phenylsulfonyl)pyrrolidin-3-yl)methyl)-5-(1H-pyrazol-4-yl)-1H-indazole]
< 10 µM | < 10 µM | < 10 µM |  |  | C[C@H]1C[C@@H](Cn2ncc3cc(-c4cn[nH]c4)ccc32)CN1C(=O)CCc1ccccc1 (racemic) [Example 46, rac.-cis-1-(4-((5-(1H-pyrazol-4-yl)-1H-indazol-1-yl)methyl)-2-methylpyrrolidin-1-yl)-3-phenylpropan-1-one]
< 10 µM | < 10 µM | < 10 µM |  |  | C[C@@H]1C[C@@H](Cn2ncc3cc(-c4cn[nH]c4)ccc32)CN1C(=O)CCc1ccccc1 (racemic) [Example 47, rac.-trans-1-(4-((5-(1H-pyrazol-4-yl)-1H-indazol-1-yl)methyl)-2-methylpyrrolidin-1-yl)-3-phenylpropan-1-one]
< 10 µM | < 10 µM | < 10 µM |  |  | O=C(CCc1ccccc1)N1CCC(Cn2ncc3cc(-c4cn[nH]c4)ccc32)CC1 [Example 3, 1-(4-((5-(1H-pyrazol-4-yl)-1H-indazol-1-yl)methyl)piperidin-1-yl)-3-phenylpropan-1-one]
< 10 µM | < 10 µM | < 10 µM |  |  | O=C(CC1CCCCC1)N1CCC(Cn2ncc3cc(-c4cn[nH]c4)ccc32)CC1 [Example 4, 1-(4-((5-(1H-pyrazol-4-yl)-1H-indazol-1-yl)methyl)piperidin-1-yl)-2-cyclohexylethanone]
< 10 µM | < 10 µM | < 10 µM |  |  | O=C(Cc1ccccc1)N1CCC(Cn2ncc3cc(-c4cn[nH]c4)ccc32)CC1 [Example 7, 1-(4-((5-(1H-pyrazol-4-yl)-1H-indazol-1-yl)methyl)piperidin-1-yl)-2-phenylethanone]
< 10 µM | < 10 µM | < 10 µM |  |  | O=C(CCCc1ccccc1)N1CCC(Cn2ncc3cc(-c4cn[nH]c4)ccc32)CC1 [Example 8, 1-(4-((5-(1H-pyrazol-4-yl)-1H-indazol-1-yl)methyl)piperidin-1-yl)-4-phenylbutan-1-one]
< 10 µM |  | < 10 µM |  |  | CC1(C)CC(Cn2ncc3cc(-c4cn[nH]c4)ccc32)CN1C(=O)Cc1ccccc1 (centres unmarked) [Example 19, 1-(4-((5-(1H-pyrazol-4-yl)-1H-indazol-1-yl)methyl)-2,2-dimethylpyrrolidin-1-yl)-2-phenylethanone]
< 10 µM | < 10 µM | < 10 µM |  | < 10 µM | O=S(=O)(c1ccccc1)N1CCC(Cn2ncc3cc(-c4cn[nH]c4)ccc32)CC1 [Example 30, 1-((1-(phenylsulfonyl)piperidin-4-yl)methyl)-5-(1H-pyrazol-4-yl)-1H-indazole]
< 10 µM | < 10 µM | < 10 µM |  | < 10 µM | O=S(=O)(Cc1ccccc1)N1CCC(Cn2ncc3cc(-c4cn[nH]c4)ccc32)CC1 [Example 32, 1-((1-(benzylsulfonyl)piperidin-4-yl)methyl)-5-(1H-pyrazol-4-yl)-1H-indazole]
< 10 µM | < 10 µM | < 10 µM |  |  | CC1(C)CC(Cn2ncc3cc(-c4cn[nH]c4)ccc32)CN1S(=O)(=O)c1ccccc1 (centres unmarked) [Example 35, 1-((5,5-dimethyl-1-(phenylsulfonyl)pyrrolidin-3-yl)methyl)-5-(1H-pyrazol-4-yl)-1H-indazole]
< 10 µM |  | < 10 µM |  |  | O=S(=O)(c1ccc(F)cc1)N1CCC(Cn2ncc3cc(-c4cn[nH]c4)ccc32)CC1 [Example 37, 1-((1-((4-fluorophenyl)sulfonyl)piperidin-4-yl)methyl)-5-(1H-pyrazol-4-yl)-1H-indazole]
< 10 µM |  | < 10 µM |  |  | N#Cc1ccc(S(=O)(=O)N2CCC(Cn3ncc4cc(-c5cn[nH]c5)ccc43)CC2)cc1 [Example 38, 4-(4-((5-(1H-pyrazol-4-yl)-1H-indazol-1-yl)methyl)piperidin-1-ylsulfonyl)benzonitrile]
< 10 µM |  | < 10 µM |  |  | O=S(=O)(c1cccnc1)N1CCC(Cn2ncc3cc(-c4cn[nH]c4)ccc32)CC1 [Example 39, 5-(1H-pyrazol-4-yl)-1-((1-(pyridin-3-ylsulfonyl)piperidin-4-yl)methyl)-1H-indazole]
< 10 µM |  | < 10 µM |  |  | Cc1ccc(S(=O)(=O)N2CCC(Cn3ncc4cc(-c5cn[nH]c5)ccc43)CC2)cc1 [Example 42, 5-(1H-pyrazol-4-yl)-1-((1-tosylpiperidin-4-yl)methyl)-1H-indazole]
< 10 µM |  | < 10 µM |  |  | N#Cc1cccc(S(=O)(=O)N2CCC(Cn3ncc4cc(-c5cn[nH]c5)ccc43)CC2)c1 [Example 43, 3-((4-((5-(1H-pyrazol-4-yl)-1H-indazol-1-yl)methyl)piperidin-1-yl)sulfonyl)benzonitrile]
< 10 µM |  | < 10 µM |  |  | O=S(=O)(c1ccc(C(F)F)cc1)N1CCC(Cn2ncc3cc(-c4cn[nH]c4)ccc32)CC1 [Example 44, 1-((1-((4-(difluoromethyl)phenyl)sulfonyl)piperidin-4-yl)methyl)-5-(1H-pyrazol-4-yl)-1H-indazole]
